pIC50: −log10 of the molar value. Values joined by “and” are separate entries in the source; they are usually repeats but may differ in a detail not shown here. Identical values can stand only once. Like-named read-outs stand apart in the source and are kept apart here.
Experiments:
human sEH = biological target: T1, human sEH (Homo sapiens, UniProt P34913); assay: sEH inhibition IC50, fluorescent-based assay with purified recombinant sEH; format: biochemical
T1 sequence (P34913 1-555): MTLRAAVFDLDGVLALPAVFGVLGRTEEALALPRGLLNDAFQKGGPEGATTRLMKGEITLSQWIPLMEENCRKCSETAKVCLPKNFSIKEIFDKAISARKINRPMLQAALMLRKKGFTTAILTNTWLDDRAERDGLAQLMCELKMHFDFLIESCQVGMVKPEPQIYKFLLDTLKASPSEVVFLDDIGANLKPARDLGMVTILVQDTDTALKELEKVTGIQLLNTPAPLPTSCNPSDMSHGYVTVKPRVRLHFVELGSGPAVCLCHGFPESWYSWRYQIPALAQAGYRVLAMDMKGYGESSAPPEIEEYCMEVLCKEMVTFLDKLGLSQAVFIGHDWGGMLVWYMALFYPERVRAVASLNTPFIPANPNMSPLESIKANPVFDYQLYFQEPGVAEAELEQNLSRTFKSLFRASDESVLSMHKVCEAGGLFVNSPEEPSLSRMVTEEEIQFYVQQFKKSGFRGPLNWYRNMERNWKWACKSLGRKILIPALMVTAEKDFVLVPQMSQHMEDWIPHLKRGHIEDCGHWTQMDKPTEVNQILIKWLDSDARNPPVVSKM
Description: sEH inhibition IC50 values for the compounds presented herein can be assayed by a recombinant affinity assay using purified sEHs, from human, mouse or rat, in a fluorescent-based assay. In such an assay, enzymes, e.g., ˜1 nM human sEH, are incubated with a potential inhibitors for 5 min in 25 mM Bis-Tris/HCl buffer (200 μL; pH 7.0) at 30° C. before a substrate, e.g., cyano(2-methoxynaphthalen-6-yl)methyl trans-(3-phenyl-oxyran-2-yl)methyl carbonate, (CMNPC) is added ([S]final=5 μM).

[1] = tested on: C57BL/6 mice, bleomycin-induced fibrotic lung injury; assay: Example 2: therapeutic treatment in bleomycin-induced idiopathic pulmonary fibrosis mouse model; format: in vivo; settings: OX1 60 mg/kg, Pirfenidone 100 mg/kg
Description: The purpose of this study is to induce fibrotic lung injury in mice via a single administration of a glycopeptide antibiotic, bleomycin, in order to evaluate the efficacy of dual sEH and COX-2 inhibitor OX-1 in treating and reducing the symptoms associated with idiopathic pulmonary fibrosis. Pirfenidone, standard of care for the treatment of idiopathic pulmonary fibrosis, was used as a reference compound.
Male C57BL/6 mice from Charles River Laboratories aging of 7-8 weeks and weighing around 18-22 g at the time of their enrollment were used in the study.
Doses of OX1 at 60 mg/kg, Pirfenidone at 100 mg/kg, and the disease inducer Bleomycin at 1.5 mg/kg were used. A dosing rate of 10 mL/kg (approximately 0.2 mL/mouse according to their body weight) of OX1 was administered orally once daily to the mice. The mice received OX1 at 60 mg/kg once daily. A dosing rate of 10 mL/kg (approximately 0.2 mL/mouse according to their body weight) of Pirfenidone solution was administered once daily to the mice of the groups receiving Pirfenidone orally at the dose of 100 mg/kg once daily. A single intratracheal instillation of approximately 50 μL (1.5 mg/kg with a dosing rate of 2.5 mL/kg in sterile 0.9% saline) of bleomycin solution was administered to all mice except the sham group on day 0. Animals in the Sham group received one intratracheal instillation of approximately 50 μL of 0.9% saline solution on Day 0 and returned to their respective cages.
Treatment with the vehicle or test articles were initiated and administered starting on day 7 to day 21 as scheduled and described in Table 1 above. All test articles, reference compound and vehicle were administered to animals orally once daily. Food and water were given ad libitum. Daily observations of the behavioral and general health status of the animals were done. Daily body weight was also measured.
Prior to physiological assessment, all mice were introduced to the plethysmograph chamber environment. After the acclimatization period, the functional respiratory parameters were assessed by the whole-body plethysmograph on Day 0 (before bleomycin instillation), 7, 14 and 21 post-bleomycin instillation. Each measurement was performed with a mouse placed alone in an unrestrained whole-body plethysmography chamber (Buxco Electronics Inc.) to measure respiratory functions. The functional respiratory parameters analyzed included; the respiratory rate, the PenH ([…]) and the inspiratory/expiratory time measurements.
On the surgery day (Day 21), the mice were anesthetized, instrumented and arterial blood oxygen saturation (SpO2) was recorded. Blood oxygen saturation was read off of the pulse oximeter (STARR Life Sciences MouseOx Plus system, Oakmont, Pa.) with the probe attached to the right thigh of the animal. The saturation values were measured in percentage (%). At the moment of the sacrifice, the mouse thoracic cavity was open to expose the lungs and all mice were euthanatized by exsanguination. The trachea was then connected to the cannula of a perfusion system. The left lung was clamped while 1.5 mL of cold PBS solution (3×500 μL) was injected by the trachea to perform a bronchoalveolar lavage fluid (BALF) on the right lobe of the lungs and was collected on ice for further analysis. The total cells count with cells differential, the cytokine levels including TNF-α, TGF-β, IL-4, IL-5 and IL-17a, the total protein content as well as the soluble collagen were assessed in the BALF samples. Once collected, 300 μL of the BALF was transferred in an EDTA tube, kept at 2-4° C. and shipped to Biovet Inc. for the total cells count with cells differential analysis. The remaining BALF sample was centrifuged at 1200 rpm for 10 minutes at 4° C. to remove cells. The supernatant was aliquots and frozen at−80° C. until analysis was performed. […]

[2] = tested on: Human primary lung fibroblasts from IPF donors; assay: Fibroblast-to-Myofibroblast Transition (FMT) assay; format: cell-based; settings: for IC50: Homo sapiens, Primary lung fibroblast, 1.25 ng/ml TGF-b1
Description: OX1 was evaluated in a primary cell-based Fibroblast-to-Myofibroblast Transition (FMT) assay; an in vitro assay relevant to idiopathic pulmonary fibrosis (TPF). Human primary lung fibroblasts from three (3) IPF donors (IPF06, IPF07, and IPF08) were triggered using 1.25 ng/ml TGF-b1 to induce FMT, one hour after application of compounds. OX1 and Nintedanib (approved drug for TPF) were applied in […] in semi-log dilutions with the top concentration at […] to construct eight (8)-point concentration response curve (CRC) in biological duplicates (ie. on two (2) different cell plates at on (1) occasion). SB525334 was used at […] in 0.1% DMSO as a positive validation control. The readouts at 72 hours were high content analysis (HCA) for aSMA expression and DAPI staining for nuclear count as measurement of potential cytotoxic effects.

## NS(=O)(=O)c1ccc(-n2nc(CCCNC(=O)Nc3ccc(C(F)(F)F)cc3)cc2-c2ccccc2)cc1 [OX1, 4-(5-phenyl-3-{3-[3-(4-trifluoromethyl-phenyl)-ureido]-propyl}-pyrazol-1-yl)-benzenesulfonamide]
Human sEH
  pIC50: 8.70
[1]; BALF day 21, mean
  Eosinophils (cells): 580 cells
  Macrophages (cells): 204879 cells
  Soluble collagen: 60.4 µg and 60.38 µg
  Total BALF cytokines (pg) IL-4: 0.09 pg
  Total BALF cytokines (pg) IL-5: 2.49 pg
  Total BALF cytokines (pg) IL-6: 9.50 pg
  Total TGFβ: 299.3 pg and 299.31 pg
[1]; BLM mice, oral once daily day 7 to 21
  Percent Survival (%): 77.8%
[1]; mean, BLM mice, oral once daily day 7 to 21
  Body weight changes from day 7 (%): 11.63%
[2]
  Loss of Nuclei: Yes
[2]; donor IPF06, readout at 72 hours, read-out: αSMA inhibition IC50 (μM), Patient Identifier IPF06
  IC50: 1 µM
[2]; donor IPF07, readout at 72 hours, read-out: αSMA inhibition IC50 (μM), Patient Identifier IPF07
  IC50: 1.3 µM
[2]; donor IPF08, readout at 72 hours, read-out: αSMA inhibition IC50 (μM), Patient Identifier IPF08
  IC50: 1 µM
[2]; mean of three IPF donors, 72 hours, read-out: αSMA inhibition IC50 (μM), Mean
  IC50: 1.1 µM

— patent US20220218667A1, “DUAL INHIBITORS OF SOLUBLE EPOXIDE HYDROLASE AND METHODS OF USE THEREOF” (OROX Biosciences, Inc., priority 2019, published 2022)
